Test results reported in patent US20160299149A1, “ASSAYS AND METHODS FOR CELL PROLIFERATION-TARGETED TREATMENT THERAPIES” (University of Central Florida Research Foundation, Inc., priority 2015, published 2016).
Read-outs that look alike come from different tables or passages of the source.

Tests used:
MALME-3M cells = test: Cytotoxicity IC50 in metastatic melanoma cells; format: cell-based
Description: (§1) Graphical bars extending to the right of the 0 growth percent line indicates growth inhibition by compound A of those specific cell lines.

CHO-MG* cells = test: PTS targeting: cytotoxicity IC50 in PTS-deficient cells; format: cell-based
Description: (§2) Table 1 compares unmethylated Compound A (containing primary amine termini), and N-methylated Compound A (containing N-methyl termini). […] This is due to the presence of the terminal N-methyl groups in A.

melanoma cell lines = test: NCI 60-cancer cell screen; format: cell-based; settings: for sensitivity of MALME-3M in NCI 60-cancer cell screen: MALME-3M (low Cav-1 and high Cav-2)
Description: as §1

CHO cells = test: PTS targeting: cytotoxicity IC50 in PTS-active cells; format: cell-based
Description: as §2

MALME-3 cells = test: Cytotoxicity IC50 in matched control cells; format: cell-based; settings: in the presence of aminoguanidine (1 mM)
amine oxidases = test: Metabolic stability to amine oxidases; format: in vitro ADME, calf; settings: unmethylated compound judged without the protective aminoguanidine (AG)
Description: as §2

[1] = system: MALME-3M cells and MALME-3 control cells; test: Spermidine competition / percent viability with compound A; format: cell-based
Description: Aminoguanidine (AG) at 1 mM was determined to be non-toxic and was incubated with cells for 24 h prior to compound addition. Control represents the untreated cells. All experiments were performed in triplicate. Spermidine (Spd, 100 μM) was non-toxic to both cell lines. […] Compound A is a valid polyamine transport probe.

PanO2 derived tumors = test: Histology (Ki67, cleaved caspase) of PanO2 derived tumors; format: in vivo; settings: PanO2 derived tumors in C57Bl/6 mice
Description: FIG. 14 illustrates histological stained images of Ki67, a proliferation marker, and cleaved caspase in the presence of DFMO or DFMO+ the trimer44NMe PTI

DFMO-treated cells = test: Polyamine transport inhibitor assay 2: PTI blocks uptake of rescuing spermidine into DFMO-treated cells; format: cell-based; settings: in vitro
Description: FIG. 6A is a diagram showing an assay wherein the uptake of rescuing dose of spermidine into DFMO-treated cells is blocked by a PTI (GW 5074).
(§3) DFMO was dosed to give 50% relative viability versus an untreated control, i.e. DFMO is dosed at its IC50 value. Exogenous spermidine (Spd, 1 μM) is added to the DFMO treated cells and provided significant rescue of these cells to >80% viability depending upon the cell line. A successful PTI was able to block the entry of the spermidine rescuing agent into DFMO treated cells and result in a cell viability near the DFMO control (i.e. 50% viability). The inventors identified the following cell viabilities: DFMO only (50%), Spd only (100%), PTI (>90%), DFMO+Spd (>80%), DFMO+Spd+PTI (50%). The PTI provides a dose dependent lowering of cell viability in the presence of DFMO and a rescuing dose of spermidine. […] Identifying cells that respond to exogenous spermidine allow this assay to be possible and the c-myc and ATP13A3 biomarkers help predict these outcomes as well as the Vmax measurements for ^3H Spd import.

L3.6pl cells = test: Assay 2 with GW5074 PTI in L3.6pl cells; format: cell-based, human; settings: in combination with DFMO; 500 cells/well, 48 h at 37° C., 250 μM aminoguanidine
Description: as §3

L3.6pl pancreatic tumor = test: Human L3.6pl pancreatic tumor in nude mice, combination with 1% DFMO; format: in vivo; settings: GW5074 1 mg/kg i.p. 5 days per week for 2 weeks, trimer44NMe equimolar (1.8 mg/kg), 1% DFMO in drinking water
Description: The extension of these findings is that cells which have high c-myc and ATP13A3 expression will be sensitive to the therapy described herein. These therapies were evaluated in vivo.
The first set of experiments was in nude mice (immune compromised) using human L3.6pl pancreatic cancer cells which have high ATP13A3 and high c-myc expression and high Vmax. […] Note TTI′ in FIGS. 12 and 13 refer to the polyamine-based trimer44NMe PTI compound.
0.5×10^6 L3.6pl tumor cells were injected into the pancreas of nude mice and allowed to grow for 1 week. 1% DFMO was administered in the drinking water (changed weekly) for 2 weeks. […] Mice were collected and pancreatic tissue/tumor, with spleen attached, was weighed.

[2] = MALME-3M, 96 h, read-out: 96 h IC50
[3] = in the presence of aminoguanidine (1 mM)
[4] = with aminoguanidine (AG), read-out: CHO-MG* IC50 w/ AG
[5] = without aminoguanidine (AG), read-out: CHO-MG* IC50 w/o AG
[6] = with aminoguanidine (AG), read-out: CHO IC50 w/ AG
[7] = without aminoguanidine (AG), read-out: CHO IC50 w/o AG

CNCCCCNCCCCNCc1ccc(CNCCCCNCCCCNC)c2ccccc12 [Compound A]
IC50 (MALME-3M cells; [2]): 14 nM | IC50 ratio (MALME-3/MALME-3M) (MALME-3M cells; [3]): 59 | IC50 (CHO-MG* cells; [4]): > 100000 nM | IC50 (CHO-MG* cells; [5]): > 100000 nM | sensitivity of MALME-3M in NCI 60-cancer cell screen (melanoma cell lines; 10 μM): most sensitive cell line | growth of cancer cell lines in NCI 60-cancer cell screen (melanoma cell lines; 10 μM, MALME-3M, M14, MDA-MB-435, SK-MEL2, SK-MEL-28, SK-MEL-5, UACC-257, UACC-62): decreased growth of cancer cell lines | sensitivity of LOX IMVI melanoma cell line (melanoma cell lines; LOX IMVI (high Cav-1, low Cav-2)): most resistant melanoma cell line | CHO-MG*/CHO IC50 ratio (selectivity for CHO cells with active PTS) (CHO cells; summary bound, also when AG is removed): > 2200 | IC50 ratio w/ AG (CHO-MG*/CHO) (CHO cells; with aminoguanidine (AG)): >2272 | IC50 (CHO cells; [6]): 44 nM | IC50 ratio w/o AG (CHO-MG*/CHO) (CHO cells; without aminoguanidine (AG)): >2564 | IC50 (CHO cells; [7]): 39 nM | IC50 (MALME-3 cells): 820 nM | metabolic stability to amine oxidases (amine oxidases): metabolically stable | competition with spermidine for cell entry (percent viability) ([1]; 96 h at 37 degrees Celsius, 0.02 μM (MALME-3M cells), 0.8 μM (MALME-3 control cells)): competes with Spd for cell entry

CNCCCCNCCCCNCc1c2ccccc2c(CNCCCCNCCCCNC)c2ccccc12 [Compound B]
IC50 (MALME-3M cells; [2]): 62 nM | sensitivity of MALME-3M in NCI 60-cancer cell screen (melanoma cell lines; 10 μM): most sensitive cell line

CNCCCCNCCCCNCc1cc(CNCCCCNCCCCNC)cc(CNCCCCNCCCCNC)c1 [Compound 6b]
proliferation (Ki67 histological stain) (PanO2 derived tumors): reduced proliferation | cleaved caspase staining (apoptosis) (PanO2 derived tumors; PTI by itself): apoptosis is occurring | effectiveness as PTI agent in vitro (DFMO-treated cells): effective | metabolic stability to amine oxidases (amine oxidases): enhanced stability

N=C(N)NN [Aminoguanidine, aminoguanidine]
toxicity to cells ([1]; 1 mM, incubated with cells for 24 h prior to compound addition): non-toxic

NCCCCNCCCCNCc1ccc(CNCCCCNCCCCN)c2ccccc12 [Compound A w/o Me]
IC50 ratio (MALME-3/MALME-3M) (MALME-3M cells; [3]): 71 | IC50 (MALME-3M cells; in the presence of aminoguanidine (1 mM), read-out: MALME-3M IC50): 18 nM | IC50 (CHO-MG* cells; [4]): > 100000 nM | IC50 (CHO-MG* cells; [5]): 52100 nM | IC50 ratio w/ AG (CHO-MG*/CHO) (CHO cells; with aminoguanidine (AG)): >4545 | IC50 (CHO cells; [6]): 22 nM | IC50 ratio w/o AG (CHO-MG*/CHO) (CHO cells; without aminoguanidine (AG)): 9.5 | IC50 (CHO cells; [7]): 5500 nM | IC50 (MALME-3 cells): 1210 nM | metabolic stability to amine oxidases (amine oxidases): less selective and less metabolically stable

O=C1Nc2ccc(I)cc2/C1=C/c1cc(Br)c(O)c(Br)c1 [GW5074]
effectiveness against L3.6pl cells (L3.6pl cells): effective | reduction in tumor size (L3.6pl pancreatic tumor): statistically significant reduction
